# Key:
# [1] = target: T1, Potassium voltage-gated channel subfamily A member 5 (Homo sapiens, UniProt P22460); assay: Inhibition of Kv1.5 expressed in LTK- cells by whole cell patch clamp assay at 1uM; type: functional, cell-based
# [2] = target: T1, Potassium voltage-gated channel subfamily A member 5; assay: Inhibition of Kv1.5 expressed in LTK- cells by whole cell patch clamp assay; type: functional, cell-based
# Homo sapiens [3] = species: Homo sapiens; assay: Selectivity for Kv1.5 compared to hERG; type: functional
# [4] = target: Voltage-gated inwardly rectifying potassium channel KCNH2 (Homo sapiens, UniProt Q12809); assay: Inhibition of hERG expressed in HEK cells by whole cell patch clamp assay; type: toxicity, cell-based, HEK293
# Sequence of Voltage-gated inwardly rectifying potassium channel KCNH2 (Q12809 whole entry): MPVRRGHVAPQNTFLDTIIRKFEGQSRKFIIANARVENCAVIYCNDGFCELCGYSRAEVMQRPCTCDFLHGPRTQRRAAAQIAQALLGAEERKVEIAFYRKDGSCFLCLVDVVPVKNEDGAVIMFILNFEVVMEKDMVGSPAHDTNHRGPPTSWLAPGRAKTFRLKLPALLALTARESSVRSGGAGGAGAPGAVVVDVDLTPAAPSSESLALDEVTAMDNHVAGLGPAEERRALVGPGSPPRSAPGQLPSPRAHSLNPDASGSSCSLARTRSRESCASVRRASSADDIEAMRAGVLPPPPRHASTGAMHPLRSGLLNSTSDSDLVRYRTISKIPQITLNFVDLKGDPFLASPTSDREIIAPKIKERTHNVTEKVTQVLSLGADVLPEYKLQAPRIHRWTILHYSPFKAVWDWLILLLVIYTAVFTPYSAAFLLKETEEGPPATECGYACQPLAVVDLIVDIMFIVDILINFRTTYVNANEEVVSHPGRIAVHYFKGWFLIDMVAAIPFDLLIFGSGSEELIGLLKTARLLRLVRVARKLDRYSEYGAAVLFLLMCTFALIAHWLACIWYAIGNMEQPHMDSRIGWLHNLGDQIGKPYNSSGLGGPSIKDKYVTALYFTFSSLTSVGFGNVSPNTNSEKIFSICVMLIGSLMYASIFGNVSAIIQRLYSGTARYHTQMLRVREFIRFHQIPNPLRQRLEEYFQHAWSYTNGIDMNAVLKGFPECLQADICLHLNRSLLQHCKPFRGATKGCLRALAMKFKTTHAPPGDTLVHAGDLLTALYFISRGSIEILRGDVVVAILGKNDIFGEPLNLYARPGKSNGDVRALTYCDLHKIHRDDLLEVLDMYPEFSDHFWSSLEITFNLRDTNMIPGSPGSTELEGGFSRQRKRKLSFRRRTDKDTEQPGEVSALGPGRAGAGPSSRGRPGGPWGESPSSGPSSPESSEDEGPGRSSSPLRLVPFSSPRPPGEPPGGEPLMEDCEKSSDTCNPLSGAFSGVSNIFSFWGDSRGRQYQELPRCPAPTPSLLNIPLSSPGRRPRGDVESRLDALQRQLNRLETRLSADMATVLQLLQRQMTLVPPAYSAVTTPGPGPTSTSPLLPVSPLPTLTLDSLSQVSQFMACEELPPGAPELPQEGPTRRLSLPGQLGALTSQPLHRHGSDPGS
# Homo sapiens [5] = species: Homo sapiens; assay: Selectivity for Kv1.5 compared to L-type calcium channel; type: functional
# [6] = target: Voltage-gated L-type calcium channel (Homo sapiens, UniProt Q13936+Q13698+Q01668+O60840); assay: Inhibition of L-type calcium channel by FLIPR assay; type: functional
# T1 sequence (P22460 whole entry): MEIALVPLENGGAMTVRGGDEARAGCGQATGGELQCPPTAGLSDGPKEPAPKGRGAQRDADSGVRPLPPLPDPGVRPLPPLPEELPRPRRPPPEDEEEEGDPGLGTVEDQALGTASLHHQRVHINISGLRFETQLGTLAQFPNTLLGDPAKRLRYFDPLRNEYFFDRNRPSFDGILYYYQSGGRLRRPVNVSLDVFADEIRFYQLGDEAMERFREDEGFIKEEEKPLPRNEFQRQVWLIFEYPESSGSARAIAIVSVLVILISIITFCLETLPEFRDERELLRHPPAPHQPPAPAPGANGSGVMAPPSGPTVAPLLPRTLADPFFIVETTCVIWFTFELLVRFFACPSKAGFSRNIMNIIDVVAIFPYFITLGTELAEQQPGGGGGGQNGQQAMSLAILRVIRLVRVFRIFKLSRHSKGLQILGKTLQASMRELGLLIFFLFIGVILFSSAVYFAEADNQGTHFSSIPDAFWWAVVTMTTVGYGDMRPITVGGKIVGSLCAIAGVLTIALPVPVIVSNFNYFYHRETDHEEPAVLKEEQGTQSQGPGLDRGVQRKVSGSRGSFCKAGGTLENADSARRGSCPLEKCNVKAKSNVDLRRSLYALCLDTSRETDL
Structure (SMILES),inhibition [1] [%],further results
CCc1c(C)[nH]c2c1/C(=N/OC(=O)Nc1ccc(OC)cc1)CCC2,90,–
Cc1[nH]c2c(c1C)/C(=N/OC(=O)Nc1ccc(Cl)cc1)CCC2,78,–
Cc1[nH]c2c(c1C)/C(=N/OC(=O)Nc1ccccc1)CCC2,57,–
CCc1[nH]c2c(c1CC)/C(=N/OC(=O)Nc1ccccc1)CCC2,84,–
CCc1c2c(n(CC)c1C)CCC/C2=N\OC(=O)Nc1ccccc1,35,–
CCc1c2c(n(C)c1C)CCC/C2=N\OC(=O)Nc1ccc(C(C)=O)cc1,96,IC50 [2]: 0.368 µM
CC(=O)c1ccc(NC(=O)O/N=C2\CCCc3[nH]c(C)c(C)c32)cc1,60,–
CCc1c(C)[nH]c2c1/C(=N/OC(=O)Nc1ccc(C(C)=O)cc1)CCC2,91,–
CCc1[nH]c2c(c1CC)/C(=N/OC(=O)Nc1ccc(Cl)cc1)CCC2,87,–
CCc1c(C)[nH]c2c1/C(=N/OC(=O)Nc1ccc(C(C)(C)C)cc1)CCC2,6,–
CCc1c(C)[nH]c2c1/C(=N/OC(=O)Nc1ccc(Cl)cc1)CCC2,91,–
CCc1c2c(n(C)c1C)CCC/C2=N\OC(=O)Nc1ccccc1,77,–
CCc1c(C)[nH]c2c1/C(=N/OC(=O)NCCc1ccncc1)CCC2,20,–
O=C(Nc1ccccc1)O/N=C1\CCCC2=C1C1CCCC1N2 (stereo unspecified),79,–
CCc1c(C)[nH]c2c1/C(=N/OC(=O)NCc1ccccc1)CCC2,70,–
CCc1c(C)[nH]c2c1/C(=N/OC(=O)Nc1ccc(SC)cc1)CCC2,90,IC50 [2]: 0.35 µM
CCc1c(C)[nH]c2c1/C(=N/OC(=O)Nc1ccc(F)cc1)CCC2,90,IC50 [2]: 0.275 µM
CCc1c(C)[nH]c2c1/C(=N/OC(=O)Nc1ccccc1SC)CCC2,41,–
CC(=O)c1ccc(NC(=O)O/N=C2\CCCC3=C2C2CCCC2N3)cc1 (stereo unspecified),79,–
CCc1c(C)[nH]c2c1/C(=N/OC(=O)NCCc1ccccn1)CCC2,91,IC50 [2]: 0.547 µM

# Continued, in another order:
inhibition [1] [%],Structure (SMILES),further results
95,CCc1c(C)[nH]c2c1/C(=N/OC(=O)Nc1ccc(C#N)cc1)CCC2,–
85,CCc1c(C)[nH]c2c1/C(=N/OC(=O)Nc1ccc(C)cc1)CCC2,–
91,CCc1c(C)[nH]c2c1/C(=N/OC(=O)Nc1ccccc1)CCC2,Ratio (Homo sapiens [3]): > 450; IC50 [2]: 0.067 µM; IC50 [4]: > 30 µM; Ratio (Homo sapiens [5]): > 450; IC50 [6]: > 30 µM
25,CCc1c(C)[nH]c2c1/C(=N/OC(=O)NCCc1cccnc1)CCC2,–
96,CC(=O)c1ccc(NC(=O)O/N=C2\CCCc3c2c(C(C)C)c(C)n3C)cc1,–
76,CCc1c(C)[nH]c2c1/C(=N/OC(=O)NCCc1ccccc1)CCC2,–
58,O=C(Nc1ccc(Cl)cc1)O/N=C1\CCCC2=C1C1CCCC1N2 (stereo unspecified),–
92,CCc1c2c(n(C)c1CC)CCC/C2=N\OC(=O)Nc1ccc(C(C)=O)cc1,–
51,CCc1c(C)[nH]c2c1/C(=N/OC(=O)Nc1ccc(C(C)C)cc1)CCC2,–
71,CCc1c2c(n(CC)c1C)CCC/C2=N\OC(=O)Nc1ccc(C(C)=O)cc1,–
99,CCc1c2c(n(C)c1CC)CCC/C2=N\OC(=O)Nc1ccccc1,Ratio (Homo sapiens [3]): > 450; IC50 [2]: 0.021 µM; IC50 [4]: > 30 µM; Ratio (Homo sapiens [5]): > 450; IC50 [6]: 20 µM
73,CCc1c(C)[nH]c2c1/C(=N/OC(=O)Nc1cccc(SC)c1)CCC2,–

# Source: ChEMBL document CHEMBL1137274, “Discovery and synthesis of tetrahydroindolone-derived carbamates as Kv1.5 blockers” (Bioorg Med Chem Lett, 2006)
